Laboratory results taken from patent publication US7678363B2, “Methods of treating psychiatric conditions comprising administration of muscarinic agents in combination with SSRIs” (priority 2005, dated 2010).
Where a name gives a salt, the structure may show the parent alone.

Experiments:
[1] = tested on: Human neural stem cells (hNSCs); experiment: Neuronal differentiation of human neural stem cells (TUJ-1 staining); type: cell-based; details: for EC50: read-out: EC50 for neuronal differentiation, agent alone
Procedure: Mitogen-free test media with 5 μM DHEA served as a positive control for neuronal differentiation, and basal media without growth factors served as a negative control.
The presence of synergy was determined by use of a combination index (CI). […] The CI is a quantitative measure of the nature of drug interactions, comparing the EC50's of two compounds, when each is assayed alone, to the EC50 of each compound when assayed in combination. The combination index (CI) is equal to the following formula: […]
where C1 and C2 are the concentrations of a first and a second compound, respectively, resulting in 50% activity in neuronal differentiation when assayed in combination; and IC1 and IC2 are the concentrations of each compound resulting in 50% activity when assayed independently.

[2] = tested on: KA, AMPA, and NMDA iGlu receptors; details: cited from earlier work
[3] = tested on: mGlu7 and mGlu8; details: at higher concentrations (e.g., above 1 μM); cited from earlier work
[4] = not told; cited from earlier work
[5] = clinical reports; cited from earlier work
[6] = molecular target: human mGlu3 (Homo sapiens, UniProt Q14832); details: read-out: EC50 against human mGlu3 receptors; agonist, in vitro; cited from earlier work
[7] = molecular target: human mGlu2 (Homo sapiens, UniProt Q14416); details: read-out: EC50 against human mGlu2 receptors; agonist, in vitro; cited from earlier work
[8] = tested on: Group I and Group III receptors; details: at sub-mM concentrations; cited from earlier work
[9] = molecular target: mGluR2 (Homo sapiens, UniProt Q14416); details: antagonist; read-out: IC50 against mGluR2; cited from earlier work
[10] = molecular target: mGluR3 (Homo sapiens, UniProt Q14832); details: antagonist; read-out: IC50 against mGluR3; cited from earlier work
[11] = tested on: Human neural stem cells (hNSCs); details: maximum of curve
[12] = tested on: Human neural stem cells (hNSCs); experiment: cells; details: Neural stem cell, read-out: EC50 for astrocyte differentiation
[13] = Homo sapiens, Neural stem cell, agent run independently, percentage of neuronal positive control, basal media values subtracted
[14] = agent run independently, percentage of neuronal positive control, basal media values subtracted

Chain of mGluR3 (Q14832 23-879): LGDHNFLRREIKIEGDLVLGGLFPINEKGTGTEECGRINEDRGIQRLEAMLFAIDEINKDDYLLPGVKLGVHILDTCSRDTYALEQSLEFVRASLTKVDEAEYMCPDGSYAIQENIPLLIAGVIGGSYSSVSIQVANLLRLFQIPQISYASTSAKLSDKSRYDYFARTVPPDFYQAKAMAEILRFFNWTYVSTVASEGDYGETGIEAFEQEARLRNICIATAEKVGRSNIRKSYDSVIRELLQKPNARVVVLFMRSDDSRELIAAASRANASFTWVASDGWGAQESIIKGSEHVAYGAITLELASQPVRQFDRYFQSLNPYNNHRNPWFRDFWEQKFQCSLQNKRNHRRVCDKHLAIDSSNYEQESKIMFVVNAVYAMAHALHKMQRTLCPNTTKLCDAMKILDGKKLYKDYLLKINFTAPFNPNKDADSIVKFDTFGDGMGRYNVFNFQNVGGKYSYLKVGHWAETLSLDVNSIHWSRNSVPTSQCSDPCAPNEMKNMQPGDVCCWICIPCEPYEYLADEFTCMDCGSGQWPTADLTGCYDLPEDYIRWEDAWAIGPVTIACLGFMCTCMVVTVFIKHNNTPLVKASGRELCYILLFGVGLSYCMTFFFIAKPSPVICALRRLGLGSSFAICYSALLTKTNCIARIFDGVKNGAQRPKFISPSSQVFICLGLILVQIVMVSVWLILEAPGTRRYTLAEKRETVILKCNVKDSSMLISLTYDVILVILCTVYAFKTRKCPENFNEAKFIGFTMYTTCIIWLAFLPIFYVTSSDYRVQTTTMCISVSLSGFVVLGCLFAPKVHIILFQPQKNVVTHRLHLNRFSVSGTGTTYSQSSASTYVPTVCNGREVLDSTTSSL
Chain of human mGlu3 (Q14832 23-879): as above
Chain of mGluR2 (Q14416 19-872): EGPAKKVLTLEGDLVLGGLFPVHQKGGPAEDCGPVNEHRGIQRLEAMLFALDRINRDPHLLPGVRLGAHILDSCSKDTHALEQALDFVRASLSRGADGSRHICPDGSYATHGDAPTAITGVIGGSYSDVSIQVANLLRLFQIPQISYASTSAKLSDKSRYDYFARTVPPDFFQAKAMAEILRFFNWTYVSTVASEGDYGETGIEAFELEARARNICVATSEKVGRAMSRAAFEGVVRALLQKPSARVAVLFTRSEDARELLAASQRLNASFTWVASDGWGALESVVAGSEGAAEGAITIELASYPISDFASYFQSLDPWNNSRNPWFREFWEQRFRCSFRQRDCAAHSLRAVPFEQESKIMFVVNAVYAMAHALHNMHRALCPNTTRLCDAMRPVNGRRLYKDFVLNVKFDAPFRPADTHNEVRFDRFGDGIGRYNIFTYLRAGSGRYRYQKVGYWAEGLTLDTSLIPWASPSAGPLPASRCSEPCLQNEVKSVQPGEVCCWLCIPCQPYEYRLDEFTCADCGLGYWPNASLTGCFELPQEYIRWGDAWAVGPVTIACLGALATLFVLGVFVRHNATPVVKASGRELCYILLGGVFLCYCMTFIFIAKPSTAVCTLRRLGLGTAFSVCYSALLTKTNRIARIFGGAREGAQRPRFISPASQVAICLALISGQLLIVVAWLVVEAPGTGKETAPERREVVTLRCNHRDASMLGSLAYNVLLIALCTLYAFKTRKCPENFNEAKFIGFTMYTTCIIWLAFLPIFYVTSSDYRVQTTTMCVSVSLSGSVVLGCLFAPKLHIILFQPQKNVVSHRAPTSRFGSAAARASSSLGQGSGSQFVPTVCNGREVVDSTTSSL
Chain of human mGlu2 (Q14416 19-872): as above

Q: For Nc1c2c(nc3ccccc13)CCCC2 [Tacrine, tetrahydroaminoacridine], which EC50 [1, 13] is on record?
A: The EC50 was 8 µM.

Q: Which “activity against KA, AMPA, and NMDA iGlu receptors” value [2] does the source give for N[C@](CC1c2ccccc2Oc2ccccc21)(C(=O)O)[C@H]1C[C@@H]1C(=O)O [LY341495, (2S)-2-amino-2-(1S,2S-2-carboxycycloprop-1-yl)-3-(xanth-9-yl)propanoic acid] here?
A: Its value is “substantially inactive”.

Q: What about the “activity against mGlu7 and mGlu8” value [3] of the same molecule?
A: The value was “antagonist activity”.

Q: Which blood-brain barrier permeability [4] does the source give for CNC(=O)Oc1ccc2c(c1)[C@]1(C)CCN(C)[C@@H]1N2C (single isomer, unassigned) [Physostigmine, 1,2,3,3a,8,8a-hexahydro-1,3a,8-trimethyl-, methylcarbamate (ester) or (3aS,8aR)-pyrrolo(2,3-b)indol-5-ol] here?
A: The blood-brain barrier permeability was “capable of crossing the blood-brain barrier”.

Q: Which “reported side effects / dose limiting toxicities” value [5] does the source give for CNCCC(Oc1ccc(C(F)(F)F)cc1)c1ccccc1 (stereo not shown) [fluoxetine] here?
A: The value was “sexual dysfunction and (rarely) agitation and increased suicidal thoughts”.

Q: Which EC50 ([1]; Homo sapiens, Neural stem cell) does the source give for COC(=O)C(c1ccccc1)C1CCCCN1 (stereo not shown) [Ritalin, Methylphenidate hydrochloride] here?
A: The EC50 was 3.5 µM.

Q: What does the source list for N[C@@]1(C(=O)O)CO[C@H]2[C@H](C(=O)O)[C@H]21 [LY379268, (−)-2-Oxa-4-aminobicyclohexane-4,6-dicarboxylic acid]?
A: EC50 [6]: < 10 nM; EC50 [7]: < 10 nM

Q: With NC1(C(=O)O)CCc2cc(P(=O)(O)O)ccc21 (racemic) [APICA, (RS)-1-amino-5-phosphonoindan-1-carboxylic acid] as the molecule, how does the “activity against Group I or Group III receptors” value [8] read?
A: Its value is “no appreciable activity”.

Q: What about the IC50 [9] of the same molecule?
A: The IC50 was ~30 µM.

Q: What about the IC50 [10] of the same molecule?
A: The IC50 was ~30 µM.

Q: Which EC50 ([1]; Homo sapiens, Neural stem cell) does the source give for NCC(CC(=O)O)c1ccc(Cl)cc1 (stereo not shown) [Baclofen] here?
A: The EC50 was 3.6 µM.

Q: With C[C@H](CS)C(=O)N1CCC[C@H]1C(=O)O [captopril] as the molecule, how does the EC50 [1, 13] read?
A: The EC50 was 3.78 µM.

Q: And the EC50 [1, 14]?
A: The EC50 was 2 µM.

Q: Which EC50 [1, 13] does the source give for CSc1ccc(C(=O)c2[nH]c(=O)[nH]c2C)cc1 [Enozimone, enoximone] here?
A: The EC50 was 6.76 µM.

Q: What does the source list for O=C1CC2(CCCC2)CC(=O)N1CCCCN1CCN(c2ncccn2)CC1 [buspirone]?
A: maximum astrocyte differentiation, % of the positive control [11]: 60%; EC50 ([1]; Homo sapiens, Neural stem cell): 8.4 µM; EC50 [12]: 5.7 µM

Q: For COc1cc2c(cc1OC)C(=O)C(CC1CCN(Cc3ccccc3)CC1)C2 (stereo not shown) [donepezil, 2,3-dihydro-5,6-dimethoxy-2-((1-(phenylmethyl)-4-piperidinyl)methyl)-1H-inden-1-one], which EC50 ([1]; agent run independently, percentage of neuronal positive control, basal media values subtracted, listed as Donepezil) is on record?
A: Its EC50 is 2.02 µM.

Q: What about the EC50 [1, 14] of the same molecule?
A: Its EC50 is 4.7 µM.

Q: Which EC50 [1, 13] does the source give for CN(CCOc1ccc(CC2SC(=O)NC2=O)cc1)c1ccccn1 (stereo not shown) [Rosiglitazone, rosiglitazone] here?
A: Its EC50 is 0.94 µM.

Q: For Clc1ccc2c(c1)N=C(N1CCNCC1)c1ccccc1N2 [N-desmethylclozapine], which neurogenic activity ([1]; in assays as disclosed herein (not specified)) is on record?
A: Its neurogenic activity is “highly neurogenic”.
